The values that follow come from the supplement of paper PMC11208160.

The series in a line: recombinant barcode read abundance after kanamycin selection (control-corrected) (log10(CPM+1)); higher = more efficient recombination; sequences stand for … in AGTGCAGAGAAAATCGGCCAGTTTTCTCTGCCTGCAGTCCGCATGCCGT…ATTTATGCAGCGGACTGCCTTTCTCCCAAAGTGATAAACCGGACAGTATCATGGACCGGTTTTCCCGGTAATCCGTATTTGCAAGGTTGGTTTCACT; site = the 11-nt target. In outline:
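Recombination efficiency comes from barcode counts at recombinant junctions, converted to counts per million, averaged and corrected against the control. Values appear as log10(CPM+1). They were obtained from a pooled E. coli screen in which each oligo paired a target with an IS621 bridge RNA target-binding loop, and cells were plated in duplicate on chloramphenicol/ampicillin LB agar or on chloramphenicol/ampicillin/kanamycin with 0.1 mM IPTG.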

Regarding “GCGCGACTCTGGGTTCTAACCTGTTGCTTGA [GCGCGACCTAA_LTGcore_TC_RTGcore_TC] (site GCGCGACCTAA) (LTG core: TC, RTG core: TC)”, the “recombinant barcode read abundance (log10)” value is 0.228.
On to “GCGGGACAATGGGTTCTAACCTGTTGCCTAG [GCGGGACCTAG_LTGcore_AA_RTGcore_CT] (site GCGGGACCTAG) (LTG core: AA, RTG core: CT)”, for which the “recombinant barcode read abundance (log10)” value stood at 0.227.
The result for “GCGGGACACTGGGTTCTAACCTGTTGCCTAG [GCGGGACCTAG_LTGcore_AC_RTGcore_CT] (site GCGGGACCTAG) (LTG core: AC, RTG core: CT)” reads 0.121.
Take “GCGGGACATTGGGTTCTAACCTGTTGCCTAT [GCGGGACCTAG_LTGcore_AT_RTGcore_AT] (site GCGGGACCTAG) (LTG core: AT, RTG core: AT)”: the “recombinant barcode read abundance (log10)” value is 0.11.
The figure for “GCGGGACCTTGGGTTCTAACCTGTTGCCTCA [GCGGGACCTAG_LTGcore_CT_RTGcore_TG] (site GCGGGACCTAG) (LTG core: CT, RTG core: TG)” is 0.682.
The result for “GCGGGACCTTGGGTTCTAACCTGTTGCCTGG [GCGGGACCTAG_LTGcore_CT_RTGcore_CC] (site GCGGGACCTAG) (LTG core: CT, RTG core: CC)” reads 0.0406; that for “GCGGGACGATGGGTTCTAACCTGTTGCCTTC [GCGGGACCTAG_LTGcore_GA_RTGcore_GA] (site GCGGGACCTAG) (LTG core: GA, RTG core: GA)”, 0.2.
The result for “GCGGGACGGTGGGTTCTAACCTGTTGCCTAG [GCGGGACCTAG_LTGcore_GG_RTGcore_CT] (site GCGGGACCTAG) (LTG core: GG, RTG core: CT)” reads 0.14; that for “GCGGGACGTTGGGTTCTAACCTGTTGCCTAG [GCGGGACCTAG_LTGcore_GT_RTGcore_CT] (site GCGGGACCTAG) (LTG core: GT, RTG core: CT)”, 0.0984.
On to “GGACACCACTGGGTTCTAACCTGTTGCCTAG [GGACACCCTAG_LTGcore_AC_RTGcore_CT] (site GGACACCCTAG) (LTG core: AC, RTG core: CT)”, for which the “recombinant barcode read abundance (log10)” value is 0.0688.
Regarding “GGACACCCCTGGGTTCTAACCTGTTGCCTGG [GGACACCCTAG_LTGcore_CC_RTGcore_CC] (site GGACACCCTAG) (LTG core: CC, RTG core: CC)”, the “recombinant barcode read abundance (log10)” value was 0.128.
The figure for “GGACACCCTTGGGTTCTAACCTGTTGCCTCA [GGACACCCTAG_LTGcore_CT_RTGcore_TG] (site GGACACCCTAG) (LTG core: CT, RTG core: TG)” is 0.858; for “GGACACCGATGGGTTCTAACCTGTTGCCTTC [GGACACCCTAG_LTGcore_GA_RTGcore_GA] (site GGACACCCTAG) (LTG core: GA, RTG core: GA)” it is 0.0178.
The result for “GGACACCGTTGGGTTCTAACCTGTTGCCTAG [GGACACCCTAG_LTGcore_GT_RTGcore_CT] (site GGACACCCTAG) (LTG core: GT, RTG core: CT)” reads 0.32; that for “GGCTCCCAGTGGGTTCTAACCTGTTGCGGCT [GGCTCCCCTCC_LTGcore_AG_RTGcore_AG] (site GGCTCCCCTCC) (LTG core: AG, RTG core: AG)”, 0.206; that for “GGCTCCCCATGGGTTCTAACCTGTTGCGGTG [GGCTCCCCTCC_LTGcore_CA_RTGcore_CA] (site GGCTCCCCTCC) (LTG core: CA, RTG core: CA)”, 0.1.
The result for “GGCTCCCCCTGGGTTCTAACCTGTTGCGGAG [GGCTCCCCTCC_LTGcore_CC_RTGcore_CT] (site GGCTCCCCTCC) (LTG core: CC, RTG core: CT)” reads 0; that for “GGCTCCCCTTGGGTTCTAACCTGTTGCGGCA [GGCTCCCCTCC_LTGcore_CT_RTGcore_TG] (site GGCTCCCCTCC) (LTG core: CT, RTG core: TG)”, 0.426; that for “GGCTCCCCTTGGGTTCTAACCTGTTGCGGGT [GGCTCCCCTCC_LTGcore_CT_RTGcore_AC] (site GGCTCCCCTCC) (LTG core: CT, RTG core: AC)”, 0.0344.
Turning to “GGCTCCCTCTGGGTTCTAACCTGTTGCGGGA [GGCTCCCCTCC_LTGcore_TC_RTGcore_TC] (site GGCTCCCCTCC) (LTG core: TC, RTG core: TC)”, the “recombinant barcode read abundance (log10)” value turned out to be 0.238.
In the case of “GGCTCCCTGTGGGTTCTAACCTGTTGCGGAG [GGCTCCCCTCC_LTGcore_TG_RTGcore_CT] (site GGCTCCCCTCC) (LTG core: TG, RTG core: CT)”, the “recombinant barcode read abundance (log10)” value worked out at 0.046.
In the case of “GGGAGCCACTGGGTTCTAACCTGTTGCTGAG [GGGAGCCCTCA_LTGcore_AC_RTGcore_CT] (site GGGAGCCCTCA) (LTG core: AC, RTG core: CT)”, the “recombinant barcode read abundance (log10)” value turned out to be 0.
Regarding “GGGAGCCAGTGGGTTCTAACCTGTTGCTGAG [GGGAGCCCTCA_LTGcore_AG_RTGcore_CT] (site GGGAGCCCTCA) (LTG core: AG, RTG core: CT)”, the “recombinant barcode read abundance (log10)” value came out at 0.493.
On to “GGGAGCCAGTGGGTTCTAACCTGTTGCTGCT [GGGAGCCCTCA_LTGcore_AG_RTGcore_AG] (site GGGAGCCCTCA) (LTG core: AG, RTG core: AG)”, for which the “recombinant barcode read abundance (log10)” value is 0.523.
The result for “GGGAGCCCATGGGTTCTAACCTGTTGCTGTG [GGGAGCCCTCA_LTGcore_CA_RTGcore_CA] (site GGGAGCCCTCA) (LTG core: CA, RTG core: CA)” reads 0.536.
The result for “GGGAGCCCCTGGGTTCTAACCTGTTGCTGAG [GGGAGCCCTCA_LTGcore_CC_RTGcore_CT] (site GGGAGCCCTCA) (LTG core: CC, RTG core: CT)” reads 1.11.
The figure for “GGGAGCCCGTGGGTTCTAACCTGTTGCTGCG [GGGAGCCCTCA_LTGcore_CG_RTGcore_CG] (site GGGAGCCCTCA) (LTG core: CG, RTG core: CG)” is 0.113; for “GGGAGCCCTTGGGTTCTAACCTGTTGCTGTC [GGGAGCCCTCA_LTGcore_CT_RTGcore_GA] (site GGGAGCCCTCA) (LTG core: CT, RTG core: GA)” it is 0.0409.
Consider “GGGAGCCGATGGGTTCTAACCTGTTGCTGAG [GGGAGCCCTCA_LTGcore_GA_RTGcore_CT] (site GGGAGCCCTCA) (LTG core: GA, RTG core: CT)”, for which the “recombinant barcode read abundance (log10)” value came out at 0.0418.
The figure for “GGGAGCCGCTGGGTTCTAACCTGTTGCTGGC [GGGAGCCCTCA_LTGcore_GC_RTGcore_GC] (site GGGAGCCCTCA) (LTG core: GC, RTG core: GC)” is 0.0416; for “GGGAGCCTATGGGTTCTAACCTGTTGCTGAG [GGGAGCCCTCA_LTGcore_TA_RTGcore_CT] (site GGGAGCCCTCA) (LTG core: TA, RTG core: CT)” it is 0.0839; for “GGGAGCCTATGGGTTCTAACCTGTTGCTGTA [GGGAGCCCTCA_LTGcore_TA_RTGcore_TA] (site GGGAGCCCTCA) (LTG core: TA, RTG core: TA)” it is 0.157.
The figure for “GGGCGGAACTGGGTTCTAACCTGTTGCGGAG [GGGCGGACTCC_LTGcore_AC_RTGcore_CT] (site GGGCGGACTCC) (LTG core: AC, RTG core: CT)” is 0.449; for “GGGCGGAAGTGGGTTCTAACCTGTTGCGGAG [GGGCGGACTCC_LTGcore_AG_RTGcore_CT] (site GGGCGGACTCC) (LTG core: AG, RTG core: CT)” it is 0.0524; for “GGGCGGAAGTGGGTTCTAACCTGTTGCGGCT [GGGCGGACTCC_LTGcore_AG_RTGcore_AG] (site GGGCGGACTCC) (LTG core: AG, RTG core: AG)” it is 0.193.
On to “GGGCGGACCTGGGTTCTAACCTGTTGCGGGG [GGGCGGACTCC_LTGcore_CC_RTGcore_CC] (site GGGCGGACTCC) (LTG core: CC, RTG core: CC)”, for which the “recombinant barcode read abundance (log10)” value came out at 0.132.
The figure for “GGGCGGACTTGGGTTCTAACCTGTTGCGGAA [GGGCGGACTCC_LTGcore_CT_RTGcore_TT] (site GGGCGGACTCC) (LTG core: CT, RTG core: TT)” is 1.23; for “GGGCGGACTTGGGTTCTAACCTGTTGCGGAT [GGGCGGACTCC_LTGcore_CT_RTGcore_AT] (site GGGCGGACTCC) (LTG core: CT, RTG core: AT)” it is 0.0401.
With “GGGCGGACTTGGGTTCTAACCTGTTGCGGCA [GGGCGGACTCC_LTGcore_CT_RTGcore_TG] (site GGGCGGACTCC) (LTG core: CT, RTG core: TG)”, the “recombinant barcode read abundance (log10)” value was 0.146.
Turning to “GGGCGGAGATGGGTTCTAACCTGTTGCGGAG [GGGCGGACTCC_LTGcore_GA_RTGcore_CT] (site GGGCGGACTCC) (LTG core: GA, RTG core: CT)”, the “recombinant barcode read abundance (log10)” value stood at 0.539.
Consider “GGGCGGAGCTGGGTTCTAACCTGTTGCGGAG [GGGCGGACTCC_LTGcore_GC_RTGcore_CT] (site GGGCGGACTCC) (LTG core: GC, RTG core: CT)”, for which the “recombinant barcode read abundance (log10)” value is 0.0821.
The result for “GGGCGGAGGTGGGTTCTAACCTGTTGCGGAG [GGGCGGACTCC_LTGcore_GG_RTGcore_CT] (site GGGCGGACTCC) (LTG core: GG, RTG core: CT)” reads 0.0907.
On to “GGGCGGAGGTGGGTTCTAACCTGTTGCGGCC [GGGCGGACTCC_LTGcore_GG_RTGcore_GG] (site GGGCGGACTCC) (LTG core: GG, RTG core: GG)”, for which the “recombinant barcode read abundance (log10)” value is 0.502.
